# Paper PMC11181322, “Copper(II) Complexes with Isomeric Morpholine-Substituted 2-Formylpyridine Thiosemicarbazone Hybrids as Potential Anticancer Drugs Inhibiting Both Ribonucleotide Reductase and Tubulin Polymerization: The Morpholine Position Matters” (Journal of Medicinal Chemistry, 2024)
# Columns and labels:
# MES-SA cells [1] = assay: Fluorescent protein-based cytotoxicity assay, MES-SA; assay type: cell-based, human; settings: Homo sapiens, MES-SA; 120 h; ± SD; n = 3
# From the text: (§1) The cytotoxic activity of proligands H2L^3–H2L^6 and their copper(II) complexes 3–6 was investigated in the MES-SA (human uterine sarcoma) and in its MDR counterpart (MES-SA/Dx5) cell lines by a fluorescent protein-based assay.[73]
# (§2) The human uterine sarcoma cell lines MES-SA and the doxorubicin selected MES-SA-Dx5 were obtained from ATCC (MES-SA: No. CRL-1976, MES-SA/Dx5: No. CRL-1977) and were used for the intracellular ROS generation studies. For cytotoxicity, we used the fluorescent cell lines MES-SA mCherry and MES-SA/Dx5 eGFP, which were created by lentiviral transductions of the respective genes.[73] The phenotype of the resistant cells was maintained by 500 nM doxorubicin treatment a week before use and was verified using cytotoxicity assays. Cells were cultivated at 37 °C, 5% CO2 in Dulbecco’s modified Eagle's Medium (DMEM, Sigma-Aldrich), supplemented with 10% fetal bovine serum, 5 mM glutamine, and 50 unit/mL penicillin and streptomycin (Thermo Fisher).
# (§3) MES-SA mCherry and MES-SA/Dx5 eGFP cell suspensions were seeded after trypsinization at 2500 cells/20 μL density on 384-well plates, containing 20 μL of completed medium. The next day, serial dilution of the compounds was prepared and added in an additional 20 μL, with or without 0.4 μM Tariquidar. Liquid handling steps were performed by a Hamilton StarLet robot. […] The mean and standard deviation of the pIC50 values were calculated and converted to IC50 values.
# MES-SA/Dx5 cells [2] = assay: Fluorescent protein-based cytotoxicity assay, MES-SA/Dx5; assay type: cell-based, human
# From the text: as §1, §2, §3
# MES-SA cells [3] = assay: Intracellular ROS generation, DCF-DA assay, MES-SA; assay type: cell-based, human; settings: 25 μM, 4 h treatment
# Experimental: (§4) ROS accumulation was evaluated in both the MES-SA and MES-SA/Dx5 cell lines by using 2′,7′-dichlorodihydrofluorescein diacetate (H2DCF-DA) as a probe. This compound enters the cells by passive diffusion, and after oxidation, it is converted to the highly fluorescent 2′,7′-dichlorofluorescein (DCF), enabling the estimation of intracellular ROS levels. ROS generation was measured after a 4 h treatment with 25 μM H2L^6 or 6; tert-butylhydroperoxide (TBHP, 25 μM) was used as a positive control.
# (§5) Figure 6 Intracellular ROS generation measured by the DCF-DA assay in MES-SA (filled bars) and MES-SA/Dx5 (lattice bars) cells, after a 4 h treatment with the indicated compounds at 25 μM: H2L^6 (gray), complex 6 (yellow), Triapine (green), and TBHP (brown). Values indicate fold change relative to the fluorescence of the cells treated with fluorescent probe alone (orange bars), following normalization to the initial fluorescence at the beginning of the incubation. Paired t test to the medium control was calculated; […]; **P < 0.01. Values were calculated from at least three independent experiments.
# (§6) The human uterine sarcoma cell lines MES-SA and the doxorubicin selected MES-SA-Dx5 were obtained from ATCC (MES-SA: No. CRL-1976, MES-SA/Dx5: No. CRL-1977) and were used for the intracellular ROS generation studies. […]
# MES-SA/Dx5 cells [4] = assay: Intracellular ROS generation, DCF-DA assay, MES-SA/Dx5; assay type: cell-based, human; settings: 25 μM, 4 h treatment
# Experimental: as §4, §5, §6
# MES-SA cells [5] = assay: dNTP pools in MES-SA cell extracts; assay type: cell-based, human; settings: 24 h
# From the text: RNR reduces NDPs to their corresponding deoxy derivatives (dNDPs), which are further converted into dNTPs.[77] Therefore, we investigated the effect of the most toxic proligand H2L^6 and its copper(II) complex 6 on cellular dNTP levels, using Triapine as a control. […] Triapine also elicits a dATP pool decrease while increasing the pools of the three other dNTP species. Decreasing the dATP pool to zero can give rise to the observed cytotoxic effect upon treatment with Triapine. Complex 6 seems to affect dNTP pools by a more complex mechanism, which is nevertheless consistent with R2 inhibition.[79]
# Figure 8 Measurement of dNTP pools in MES-SA cell extracts following a 24 h treatment with proligand H2L^6, complex 6, or Triapine at the indicated concentrations. Three independent experiments were performed; error bars represent standard error; stars indicate significant changes compared to the respective control (Ctrl) at p < 0.05.
# After a 24 h incubation with or without drugs, MES-SA cells were washed twice with PBS and trypsinized for 5 min. […] The pellet containing dNTPs was redissolved in 50 μL of RNase-free water and stored at −20 °C. dNTP-containing samples were measured by a nucleotide incorporation-based fluorescent method.[97] We used a long synthetic oligonucleotide (197 nt) as a template, which contains a dNTP-detection site, the sole complementary base to that of the dNTP to be quantified directly adjacent to the annealed primer. […] In addition to the limiting amount of dNTP to be quantified, the polymerization reaction mix contained the other three dNTPs in large excess. The double-stranded DNA product is detected by the EvaGreen Dye. The 2X master mix for the DNA synthesis reaction contained the following: 0.275 μM primer (Merck KGaA, Darmstadt, Germany), 0.25 μM template (IDT, Coralville, Iowa, USA), 50 μM dNTP mix (excluding the dNTP to be measured in the given experiment to limit its source to the sample), and 1.25 μM EvaGreen (Biotium). […] Fluorescence amplitude data were extracted from the Bio-Rad CFX Maestro Software and analyzed using Excel and Origin. […]
# [6] = design: method as in PMID 32336116; settings: copper(II) complexes of the named TSCs, measured under similar conditions ref 67; cited from earlier work
# mR2 RNR protein = target: T1, mR2 RNR protein (Mus musculus, UniProt P11157); design: method as in PMID 21955844; settings: in 3 min ref 76; cited from earlier work
# T1 construct: made in house
# T1 sequence (P11157 1-390): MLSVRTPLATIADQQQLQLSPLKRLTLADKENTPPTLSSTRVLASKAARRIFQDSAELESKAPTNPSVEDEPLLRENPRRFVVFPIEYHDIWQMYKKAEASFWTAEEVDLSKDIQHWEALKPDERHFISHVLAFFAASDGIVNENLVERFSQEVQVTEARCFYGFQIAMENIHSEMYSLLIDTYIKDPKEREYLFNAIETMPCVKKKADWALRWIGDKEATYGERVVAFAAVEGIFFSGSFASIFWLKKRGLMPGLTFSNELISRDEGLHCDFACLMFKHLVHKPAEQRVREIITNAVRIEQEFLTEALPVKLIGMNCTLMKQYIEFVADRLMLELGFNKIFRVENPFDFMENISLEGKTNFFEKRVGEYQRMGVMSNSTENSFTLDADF
structure (smiles),measurement,setting,value
"NC(=S)NN=Cc1ncccc1N [Triapine, 3-aminopyridine-2-carboxaldehyde thiosemicarbazone, reference compound]",IC50,MES-SA cells [1],0.52 ± 0.1 µM
same,IC50,"MES-SA/Dx5 cells [2]; Homo sapiens, MES-SA/Dx5, 120 h, ± SD, n = 3",2.8 ± 0.5 µM
same,"SR, selectivity ratio IC50 (MES-SA)/IC50 (MES-SA/Dx5)",MES-SA/Dx5 cells [2]; in the absence of TQ,0.18
same,Intracellular ROS generation,MES-SA cells [3],failed to induce ROS
same,Intracellular ROS generation,MES-SA/Dx5 cells [4],failed to induce ROS
same,dATP pool,MES-SA cells [5],decrease
same,pools of the three other dNTP species,MES-SA cells [5],increasing
same,"kobs, reduction by GSH",[6],0.10 min^–1
same,mR2 Y• reduced,mR2 RNR protein,100%
